Patent US9862713B2, “Substituted bicyclic heteroaryl compounds as RXR agonists” (CONNEXIOS LIFE SCIENCES PVT. LTD., priority 2014, dated 2018)

System: hRXR α, β, or γ
Assay: Transactivation assay (RARE-Luc dual luciferase reporter in HEK-293 cells), activity relative to LG268
Format: cell-based, human
Conditions: compound at 300 nM, 24 h; luciferase activity expressed relative to LG268
Protocol: HEK-293 cells (ATCC) were seeded one day prior to transfection. For assessing EC50 of activation of RXR isoforms 2 μg of hRXR α, β, or γ (OriGENE, USA) over-expressing vector, 1 μg of plasmid expressing firefly luciferase under RARE element (RARE-Luc) and 25 ng of renilla luciferase vector (QIAGEN, USA) were co-transfected using lipofectamine reagent. Post 24 h of transfection, cells were treated with different concentrations of RXR agonists (100 nM, 300 nM and 1 uM) for 24 h followed by estimation of luciferase activity using Dual Luciferase Reporter Assay System (Promega). Luciferase activity was normalized to that of renilla luciferase. The activities of the RXR compounds were expressed relative to LG268, a known RXR agonist.

| Compound | Activity at 300 nM |
| --- | --- |
| C=C(c1ccc(C(=O)O)nc1)c1nc2c(s1)C(C)(C)CCC2(C)C [Compound 94, 5-[1-(4,4,7,7-tetramethyl-4,5,6,7-tetrahydro-1,3-benzothiazol-2-yl)ethenyl]pyridine-2-carboxylic acid] | ** (>0.3 and <0.4) |
| CCCN(c1ccc(C(=O)O)cn1)c1nc2c(s1)C(C)(C)C=CC2(C)C [Compound 81, 6-[propyl(4,4,7,7-tetramethyl-4,7-dihydro-1,3-benzothiazol-2-yl)amino]pyridine-3-carboxylic acid] | ***** (>0.6) |
| Cc1c(N(Cc2ccccn2)c2ccc(C(=O)O)cc2)sc2c1C(C)(C)CCC2(C)C [Compound 104, 4-[(3,4,4,7,7-pentamethyl-4,5,6,7-tetrahydro-1-benzothiophen-2-yl) (pyridin-2-ylmethyl)amino]benzoic acid] | * (<0.3) |
| Cc1c(N(c2ccc(C(=O)O)cc2)c2ccccn2)sc2c1C(C)(C)CCC2(C)C [Compound 103, 4-[(3,4,4,7,7-pentamethyl-4,5,6,7-tetrahydro-1-benzothiophen-2-yl) (pyridin-2-yl)amino]benzoic acid] | ***** (>0.6) |
| CC(C)CN(c1ccc(C(=O)O)cc1)c1nc2c(s1)C(C)(C)CC(NCc1ccccc1)C2(C)C (stereo not shown) [Compound 90, 4-{[5-(benzylamino)-4,4,7,7-tetramethyl-4,5,6,7-tetrahydro-1,3-benzothiazol-2-yl](2-methylpropyl)amino}benzoic acid] | ** (>0.3 and <0.4) |
| CC1(C)CCC(C)(C)c2sc(C(C)(O)c3ccc(C(=O)O)cn3)nc21 (stereo not shown) [Compound 96, 6-[1-hydroxy-1-(4,4,7,7-tetramethyl-4,5,6,7-tetrahydro-1,3-benzothiazol-2-yl)ethyl]pyridine-3-carboxylic acid] | ** (>0.3 and <0.4) |
| CCCS(=O)(=O)Nc1cc(N(CC(C)C)c2sc3c(c2C)C(C)(C)CCC3(C)C)ccc1C(=O)O [Compound 80, 4-[(2-methylpropyl) (3,4,4,7,7-pentamethyl-4,5,6,7-tetrahydro-1-benzothiophen-2-yl)amino]-2-[(propylsulfonyl)amino]benzoic acid] | *** (>0.4 and <0.5) |
| Cc1c(N(CC(C)C)c2ccc(C(=O)O)c(OCC3CC3)c2)sc2c1C(C)(C)CCC2(C)C [Compound 55, 2-(cyclopropylmethoxy)-4-[(2-methylpropyl) (3,4,4,7,7-pentamethyl-4,5,6,7-tetrahydro-1-benzothiophen-2-yl)amino]benzoic acid] | *** (>0.4 and <0.5) |
| CC1(C)CCC(C)(C)c2sc(C(=O)c3ccc(C(=O)O)nc3)nc21 [Compound 93, 5-[(4,4,7,7-tetramethyl-4,5,6,7-tetrahydro-1,3-benzothiazol-2-yl)carbonyl]pyridine-2-carboxylic acid] | * (<0.3) |
| CC(=O)N(c1ccc(C(=O)O)cn1)c1nc2c(s1)C(C)(C)CCC2(C)C [Compound 85, 6-[acetyl(4,4,7,7-tetramethyl-4,5,6,7-tetrahydro-1,3-benzothiazol-2-yl)amino]pyridine-3-carboxylic acid] | ** (>0.3 and <0.4) |
| CC1(C)CC(=O)C(C)(C)c2nc(N(CC3CC3)c3ccc(C(=O)O)cn3)sc21 [Compound 52, 6-[(cyclopropylmethyl) (4,4,7,7-tetramethyl-5-oxo-4,5,6,7-tetrahydro-1,3-benzothiazol-2-yl)amino]pyridine-3-carboxylic acid] | ***** (>0.6) |
| CC(C)CN(c1ccc(C(=O)O)cc1)c1nc2c(s1)C(C)(C)CC(=O)C2(C)C [Compound 53, 4-[(2-methylpropyl) (4,4,7,7-tetramethyl-5-oxo-4,5,6,7-tetrahydro-1,3-benzothiazol-2-yl)amino]benzoic acid] | ***** (>0.6) |
| CC1(C)CCC(C)(C)c2sc(N(CC3CC3)c3cc(Cl)c(C(=O)O)cn3)nc21 [Compound 70, 4-chloro-6-[(cyclopropylmethyl) (4,4,7,7-tetramethyl-4,5,6,7-tetrahydro-1,3-benzothiazol-2-yl)amino]pyridine-3-carboxylic acid] | ***** (>0.6) |
| CC1(C)CCC(C)(C)c2sc(N(c3ccc(C(=O)O)cc3)c3ccccn3)nc21 [Compound 101, 4-[pyridin-2-yl(4,4,7,7-tetramethyl-4,5,6,7-tetrahydro-1,3-benzothiazol-2-yl)amino]benzoic acid] | *** (>0.4 and <0.5) |
| CC1(C)CCC(C)(C)c2sc(N(CC3CC3)c3ccc(/C=C/C(=O)O)cc3)nc21 [Compound 107] | ***** (>0.6) |
| CC1(C)CCC(C)(C)c2sc(N(CC3CC3)c3ccc(C4CC4C(=O)O)cc3)nc21 (stereo not shown) [Compound 108, 2-{4-[(cyclopropylmethyl) (4,4,7,7-tetramethyl-4,5,6,7-tetrahydro-1,3-benzothiazol-2-yl)amino]phenyl}cyclopropanecarboxylic acid] | ***** (>0.6) |
| Cc1cc(N(CC2CC2)c2nc3c(s2)C(C)(C)CCC3(C)C)ccc1C(=O)O [Compound 59, 4-[(cyclopropylmethyl) (4,4,7,7-tetramethyl-4,5,6,7-tetrahydro-1,3-benzothiazol-2-yl)amino]-2-methylbenzoic acid] | ** (>0.3 and <0.4) |

Same assay, conditions: compound at 1 µM, 24 h; luciferase activity expressed relative to LG268

| Compound | Activity at 1 µM |
| --- | --- |
| CCN(c1ccc(C(=O)O)cn1)c1nc2c(s1)C(C)(C)CCC2(C)C [Compound 39, 6-[Ethyl(4,4,7,7-tetramethyl-4,5,6,7-tetrahydro-1,3-benzothiazol-2-yl)amino]pyridine-3-carboxylic acid] | ***** (>1) |
| CCn1c(-c2ccc(C(=O)O)cc2)ccc1-c1sc2c(c1C)C(C)(C)CCC2(C)C [Compound 32, 4-[1-Ethyl-5-(3,4,4,7,7-pentamethyl-4,5,6,7-tetrahydro-1-benzothiophen-2-yl)-1H-pyrrol-2-yl]benzoic acid] | * (<0.7) |
| CC1(C)CCC(C)(C)c2sc(N(c3ccc(C(=O)O)cc3)C3CC3)nc21 [Compound 36, 4-[Cyclopropyl(4,4,7,7-tetramethyl-4,5,6,7-tetrahydro-1,3-benzothiazol-2-yl)amino]benzoic acid] | ***** (>1) |
| CO/N=C(\c1ccc(C(=O)O)cc1)c1sc2c(c1C)C(C)(C)CCC2(C)C [Compound 4, 4-[(E,Z)-(Methoxyimino) (3,4,4,7,7-pentamethyl-4,5,6,7-tetrahydro-1-benzothiophen-2-yl)methyl]benzoic acid] | **** (>0.9 to <1) |
| C=C(c1ccc(C(=O)O)cc1)c1sc2c(c1C)C(C)(C)CCC2(C)C [Compound 1, 4-[1-(3,4,4,7,7-Pentamethyl-4,5,6,7-tetrahydro-1-benzothiophen-2-yl)ethenyl]benzoic acid] | ***** (>1) |
| CN(c1ccc(C(=O)O)cc1)c1nc2c(s1)C(C)(C)CCC2(C)C [Compound 33, 4-[Methyl(4,4,7,7-tetramethyl-4,5,6,7-tetrahydro-1,3-benzothiazol-2-yl)amino]benzoic acid] | *** (>0.8 and <0.9) |
| CCOC1CC(C)(C)c2sc(N(C)c3ccc(C(=O)O)cc3)nc2C1(C)C (stereo not shown) [Compound 35, 4-[(5-Ethoxy-4,4,7,7-tetramethyl-4,5,6,7-tetrahydro-1,3-benzothiazol-2-yl)(methyl)amino]benzoic acid] | *** (>0.8 and <0.9) |
| CCN(c1ccc(C(=O)O)cc1)c1sc2c(c1C)C(C)(C)CCC2(C)C [Compound 9, 4-[Ethyl(3,4,4,7,7-pentamethyl-4,5,6,7-tetrahydro-1-benzothiophen-2-yl)amino]benzoic acid] | *** (>0.8 and <0.9) |
